The subject of data set [1] is PC-3 cells. Put plainly: Cellular internalization by ICP-MS. As to conditions: 5 μM, 4 h. Type of data set: cell-based, human. How it is done: Figure 10 Cellular internalization. PC-3 cells were incubated for 4 h with the indicated compounds at 5 μM, and the Ir (A) or Ru (B) content per 1 × 10^6 cells was quantified by ICP-MS. Bars represent the mean value of three replicates ± SD. * p < 0.05; *** p < 0.001 versus Ir-H or Ru-H.
The intracellular accumulation of the PSs is a crucial requirement to achieve a photocytotoxic effect. This is because the ROS generated by the PSs have a very limited radius of action and only operate in the cellular compartment or organelle in which they are generated.[57] […] This further emphasizes the importance of cellular uptake for their cytotoxic activity. Additionally, when using tumor-targeting ligands, such as BN3, the intracellular uptake of the metallopeptides depends on the level of expression of the target receptor on the cell surface and the internalization mechanism, which may differ from that of the free complex. Therefore, the internalization of complexes Ir-H, Ir-Me, Ru-H, and Ru-Me and of metallopeptides Ir-BN and Ru-BN in PC-3 cells was determined by quantifying the intracellular metal content by inductively coupled plasma mass spectrometry (ICP-MS) (Figure 10). After 4 h treatment with the compounds at 5 μM, the amount of Ir in cells exposed to Ir-H was 3.1 ± 0.7 ng per million cells, whereas in the case of its conjugated form Ir-BN, it increased 5.7-fold to 17.9 ± 5.6 ng per million cells. […]
PC-3 cells were seeded in 6-well plates at a density of 2 million cells/well. […] The number of cells in each sample was determined using a Novocyte flow cytometer (Agilent Technologies). The samples were centrifuged to obtain the cell pellet, and the complex content was subsequently assessed using inductively coupled plasma mass spectrometry (ICP-MS). […] The Ir or Ru content was analyzed in Agilent 7500c ICP-MS located at the Technical Research Services of the University of Girona. […] The isotopes detected were ^193Ir, ^101Ru, and ^103Rh, respectively. […] Three independent samples were analyzed for each complex.

Data set [2] is described as follows: Emission and photophysical properties. Type of data set: physicochemical. Particulars: H2O:DMSO (99:1), 25 °C, nitrogen atmosphere; for λem: λex 405 nm (Ir) or 450 nm (Ru). The procedure: The emission spectra of the metal complexes in deoxygenated solutions of H2O:DMSO (99:1, v:v, 10^–5 M) were recorded at 25 °C, using λex of 405 nm for Ir-Me/Ir-H and λex of 450 nm for Ru-Me/Ru-H (Figure 3). […] Moreover, Ir-Me/Ru-Me featured lower emission intensities compared to Ir-H/Ru-H, respectively.
The excited state lifetimes (τ) and the photoluminescence quantum yields were also determined for the new metal complexes (Table 2). […] These values compare well with those of similar complexes and are compatible with a triplet nature for the emissive states. The photoluminescence quantum yields (ΦPL) of Ir(III)/Ru(II) were very low with values ranging from 1.1 to 4.13%.
All synthetic manipulations for Ir(III) and Ru(II) complexes were carried out under an atmosphere of dry, oxygen-free nitrogen using standard Schlenk techniques. The solvents were dried and distilled under a nitrogen atmosphere before use. Elemental analyses were performed with a Thermo Fisher Scientific EA Flash 2000 Elemental Microanalyzer. UV–vis absorption was measured in a Jasco V-750 UV–visible spectrophotometer. Fluorescence steady-state and lifetime measurements were performed in an FLS980 (Edinburgh Instruments) fluorimeter with Xenon Arc Lamp 450 W and TCSPC laser, respectively. Photoluminescence quantum yields was determined by using FLS980 (Edinburgh Instruments) with Xenon Arc Lamp 450 W and Red PMT Sphere as a detector. HR-ESI(+) mass spectra were recorded with an Agilent LC-MS system (1260 Infinity LC/6545 Q-TOF MS spectrometer) using dichloromethane (DCM) as a sample solvent and H2O (0.1% formic acid)/MeOH (0.1% formic acid) and 30:70 as the mobile phase. The experimental m/z values are expressed in Da and were compared with the m/z values for monoisotopic fragments. […] Chemical shift values (δ) are reported in ppm and coupling constants (J) in hertz. The splitting of proton resonances in the reported ^1H NMR data is defined as s = singlet, d = doublet, t = triplet, q = quartet, m = multiplet, and bs = broad singlet. 2D NMR spectra were recorded using standard pulse sequences. All NMR data processing was carried out using MestReNova version 10.0.2. […]
an integrating sphere. For the determination of the luminescence lifetime, the fluorescence decay was measured on a FLS980 spectrofluorometer equipped with a TSCPC laser (Ir(III) complexes: λ ex = 405 nm; Ru(II) complexes: λ ex = 450 nm) and a REDPMT detector. The F980 spectrometer operating software was used to collect and process luminescence lifetime data. […]
Photocatalytic oxidation of NADH. […]
A decrease in the absorption band with maxima at 338 nm was considered to confirm the photocatalytic oxidation of NADH into NAD+. […]
Both phases were then separated. Next, approximately 0.1 mg of the corresponding photosensitizer was dissolved in 1 mL of PBS-saturated n-octanol. Subsequently, 1 mL of octanol-saturated PBS was added, and the mixture was stirred vigorously at room temperature for 24 h. The two layers were separated carefully, and the absorbance of each layer was determined at the respective local maximum located around 425 nm. The log P oct/PBS values were determined as follows: […]

The results in this text go back to article PMC11483813, “Bombesin-Targeted Delivery of β-Carboline-Based Ir(III) and Ru(II) Photosensitizers for a Selective Photodynamic Therapy of Prostate Cancer” (Inorganic Chemistry, 2024).

Several values for one entry are separate records, joined by “and”; a condition that tells them apart may be missing. Identical values can stand only once.

As for `Cn1c2ccccc2c2ccnc(-c3ccc(/C=C/C(=O)O)cn3)c21.[Cl-].[Ir+3].[c-]1ccccc1-c1ccccn1.[c-]1ccccc1-c1ccccn1` [Ir-H], the “amount of Ir in cells” value in data set [1] is listed as 3.1 ± 0.7 ng per million cells. Besides, in data set [2], the ΦPL is 4.13%; the “τ [contribution (%)], first or only component” value was 23 ns and 23 [51] ns; the “τ [contribution (%)], second component” value is 145 ns and 145 [49] ns; the λem turned out to be 651 nm.

As for `Cn1c2ccccc2c2ccnc(-c3ccc(/C=C/C(=O)O)cn3)c21.[Cl-].[Cl-].[Ru+2].c1ccc(-c2ccccn2)nc1.c1ccc(-c2ccccn2)nc1` [Ru-H], the “intracellular Ru content” value in data set [1] was found to be 0.329 ng per million cells. In data set [2], the ΦPL was found to be 3.13%; the “τ [contribution (%)], first or only component” value worked out at 186 ns; the λem is 688 nm.

`COC(=O)/C=C/c1ccc(-c2nccc3c4ccccc4n(C)c23)nc1.[Cl-].[Ir+3].[c-]1ccccc1-c1ccccn1.[c-]1ccccc1-c1ccccn1` [Ir-Me]: the “amount of Ir in cells” value in data set [1] is 266.4 ± 13.9 ng per million cells. In data set [2], the ΦPL was 3.50%; the “τ [contribution (%)], first or only component” value was 2 ns and 2 [20] ns; the “τ [contribution (%)], second component” value is 93 ns and 93 [80] ns; the λem was found to be 676 nm.
